This is an account of results in US7867989B2, “α-glucosidase inhibitors from lichens” (priority 2007, dated 2011).

For this test, the target named is α-Glucosidase (EC 3.2.1.20). The following applies: read-out: IC50 values ± SEM against α-glucosidase enzyme; pH 6.9, 37° C., 0.5 μM p-nitrophenyl α-D-glucopyranoside substrate, 250 units/mL enzyme, 50 mM sodium phosphate buffer with 100 mM NaCl.

Text: The increments in absorption at 400 nm due to the hydrolysis of PNP-G by α-glucosidase were monitored continuously with a molecular devices spectrophotometer.

As to `CC(C)(O)[C@H]1CC[C@]2(C)[C@H]3CC[C@@H]4[C@@]5(C)CCCC(C)(C)[C@@H]5[C@@H](O)C[C@@]4(C)[C@]3(C)CC[C@@H]12` [Zeorin, 6,22-Hopanediol], the half-maximal inhibitory concentration (IC50) was 100 ± 0.3 µM.

Broadly, the IC50 is the concentration that gives 50% inhibition.
